From ChEMBL document CHEMBL1201862, “PubChem BioAssay data set” (2004)
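In this assay, cells in 96-well plates receive the compound at five concentrations for 48 hours. Endpoints are linearly interpolated between the surrounding concentrations. GI50 = concentration required for 50% inhibition of growth.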 Activity calls are given as the source filed them. Rule as the data show it: active = GI50 up to about 1.1 µM and inactive = higher.

Key:
Assay in all cases: NCI anticancer screen, dose series, 48 h
DMS-273 = test system: DMS-273
M19-MEL = test system: M19-MEL
DMS-114 = test system: DMS-114
HOP-18 = test system: HOP-18
LXFL 529 = test system: LXFL 529
RXF 631 = test system: RXF 631
SNB-78 = test system: SNB-78
DLD-1 = test system: DLD-1

Measured: GI50

CC12CCC([C@H](N3CCOCC3)/C1=N\OCCN1CCCC1)C2(C)C (stereo not given in full)
inactive: DMS-273 > 100 µM | M19-MEL > 100 µM | DMS-114 71.9 µM | HOP-18 > 100 µM | LXFL 529 > 100 µM | RXF 631 > 100 µM | SNB-78 > 100 µM | DLD-1 > 100 µM

COc1cc2c([C@@H](OC(=O)c3ccccc3)c3ccc4c(c3)OCO4)nccc2c(OC)c1OC
inactive: DMS-273 32.4 µM | M19-MEL 42.2 µM | DMS-114 16.4 µM | HOP-18 > 100 µM | LXFL 529 16.7 µM | RXF 631 20.5 µM | SNB-78 85.7 µM | DLD-1 53.3 µM

CCOC(=O)/C(=C/c1cccc(C#N)c1)N(CC)CC
inactive: M19-MEL > 100 µM | DMS-114 > 100 µM | HOP-18 > 100 µM | LXFL 529 > 100 µM | RXF 631 > 100 µM | SNB-78 > 100 µM | DLD-1 > 100 µM

N=C1NC2(O)C(=O)c3ccccc3C2(O)N1 (stereo not given)
inactive: DMS-273 > 100 µM | DMS-114 > 100 µM | HOP-18 > 100 µM | LXFL 529 > 100 µM | RXF 631 > 100 µM | SNB-78 > 100 µM | DLD-1 > 100 µM

COC(=O)c1cc2cc(OC)c(OC)cc2cc(C(=O)OC)c1=O
inactive: DMS-273 > 100 µM | M19-MEL > 100 µM | DMS-114 29.6 µM | HOP-18 > 100 µM | LXFL 529 > 100 µM | RXF 631 > 100 µM | SNB-78 > 100 µM | DLD-1 > 100 µM

N#CC(C(=O)/C(=N/N)C(C#N)c1ccccc1)c1ccccc1 (stereo not given)
inactive: M19-MEL > 100 µM | DMS-114 > 100 µM | HOP-18 > 100 µM | LXFL 529 > 100 µM | RXF 631 > 100 µM | SNB-78 > 100 µM | DLD-1 > 100 µM

c1cncc(C2c3[nH]c4ccccc4c3CCN2CCN2CCCCC2)c1 (stereo not given)
inactive: DMS-273 > 100 µM | M19-MEL > 100 µM | DMS-114 > 100 µM | HOP-18 > 100 µM | LXFL 529 > 100 µM | RXF 631 > 100 µM | SNB-78 > 100 µM | DLD-1 > 100 µM

CC(O)c1ccc[n+](Cc2ccccc2)c1 (stereo not given)
inactive: DMS-273 > 400 µM | M19-MEL > 400 µM | DMS-114 > 400 µM | HOP-18 > 400 µM | LXFL 529 > 400 µM | RXF 631 > 400 µM | DLD-1 > 400 µM
